Experimental data reported in US10745731B2, “Recombinant production method” (Hoffmann-La Roche Inc., priority 2015, dated 2020).
Read-outs that look alike come from different tables or passages of the source.

Assays:
[1] = test system: HDAC; settings: cited from earlier work
[2] = test system: HEK293F cells; experiment: Transient gene expression in HEK293F cells: cell specific productivity of the expressed antibody; format: cell-based, human; settings: for Mean cell specific productivity: untreated 1.71; for activity at 0.015 µM: 15 nM; for specific productivity after 96 hours: none 2.01; for TGE enhancement after BAY11-7082 treatment compared to the corresponding single treatment: BAY11-7082 added 24 hours after stimulation
Description: HEK293F cells were cultivated in F17 medium (Life Technologies) in shaker flasks at 36.5° C., 7.0% CO2 and 80% humidity in a shaker incubator (Kuhner, Mytron). Cells were split every three to four days and were cultivated no longer than five weeks. To avoid overgrowth and to keep them in the exponential phase of growth, viable cell densities (VCD) never exceeded 60*10^5 cells/mL.
(§1) Transient gene expression is a 5-7 days lasting procedure. The standard operating procedure of this expression system is applicable to shaker flasks with various volumes of cell culture ranging from 80 mL to 2 L. First, half of the cell culture volume is seeded at a viable cell density (VCD) of 8*10^5 cells/mL. After two days of cultivation, cells are split to a VCD of about 12*10^5 cells/mL. On the next day, cells are transfected with a polyethylene imine (PEI)-based transfection reagent at a VCD between 20*10^5 cells/mL and 25*10^5 cells/mL. 3 hours after transfection, the production enhancer (if any) is added. 24 h after transfection, a feeding solution and a glucose bolus is supplemented to avoid the limitation of nutrients. Depending on cell viability, which should not decrease below 50%, the supernatant is harvested five to seven days post transfection and subjected to antibody purification.
(§2) To compare transient gene expression rates always the same plasmids encoding for one distinct antibody were co-transfected.
(§3) To co-transfect two plasmids equimolarily, the ratio of the base pair number of one plasmid to the total base pair number was calculated and multiplied with the total amount of DNA (0.5 mg/L). Plasmid one has a size of 10530 bp and plasmid two has a size of 7184 bp and were solved in water to a final concentration of 1 mg/mL. For transfection of one liter cell culture, 297 μL of plasmid one and 203 μl of plasmid two were dissolved in 40 mL phosphate buffered saline (PBS) at room temperature. 1.25 mL JetPEI® solution was added and the solution was mixed well. After incubation for 10-15 min., the mixture was added to the cells. The cells were transfected in a batch containing the whole cell culture necessary for every experiment to avoid variance arising from different transfection efficiencies.
(§4) 80 mL of the transfected cell culture batch was added to a 125 ml shaker flask. For every experiment, two or three 125 mL shaker flasks were used as biological replicates and treated the same way. Three hours after transfection, cells were split into 125 mL shaker flasks and the cellular treatments with small molecules or ligands were started. Basal protein expression was determined by untreated control samples. To compare samples with the standard operating procedure, cells were also treated with VPA to a final concentration of 4 mM or 3 mM. VPA and its analogues were dissolved in double distilled water. […] Tumor necrosis factor (TNF) alpha was reconstituted with PBS supplemented with 0.1% BSA. Flagellin was dissolved in sterile double distilled water. The applied molecules were not added to the cultivation directly, but diluted in 16 mL medium pre-warmed to 36.5° C. and added to the cultivation thereafter.
(§5) 24 h after transfection a feeding solution at 36.5° C. and 3 mg/mL glucose were added to the cultivation.
(§6) To determine cell viability and viable cell density (VCD) 1 mL cultivation medium (cell suspension) was transferred into a Cedex low fouling sample cup. The cup was placed into a Vicell instrument (Beckman Coulter). The instrument mixes cells with trypan blue to stain dead cells. After analysis of 50 images VCD was calculated and viability was determined by calculation of the percentage of viable cell number in relation to the total cell number.
(§7) Total concentration of the transiently expressed antibody was determined by a turbidimetric test. One mL cell suspension was transferred into an Eppendorf cup and centrifuged for 10 min. at 10,000 rpm (9,300 g).

[3] = test system: HDAC; experiment: in situ HDAC activity fluorimetric assay in HEK293F cells; format: cell-based, human; settings: for HDAC inhibition: yes/no, summary table
Description: HDAC activity was determined by the in situ HDAC activity fluorimetric assay kit (Biovision) according to the manufacturer's instructions. HEK293F cells were suspended in F17 medium (Life Technologies) to a cell density of 5*10^5 cells/mL. One hundred micro liter culture was pipetted per well into a black ELISA plate. The plate was centrifuged at 1000 g for 5 min. The supernatant was discarded and the cells were resuspended in a reaction mix containing F17 medium, 1% HDAC substrate and the molecule tested towards HDAC inhibitory activity. 10 μM Trichostatin A was used as a positive control and the basal HDAC activity was determined by re-suspending the cells in F17 medium with 1% HDAC substrate. Furthermore, cells were resuspended in F17 medium without HDAC substrate as a background control. The HDAC activity assay was performed in triplicates for every sample as well as every control. The 96-well plate was incubated at 36.5° C., 80% humidity and 7% CO2 for one hour. During this time, the active HDACs deacetylate the HDAC substrate what releases the quenched fluorescent signal of the substrate. After incubation the fluorescent signal was analyzed by the infinite fluorescence plate reader (TECAN). The fluorescence signal of the samples and controls was normalized by subtracting the fluorescence signal of the background control. It is assumed that the fluorescent signal arising from deacetylation of the substrate directly correlates with HDAC activity.

[4] = test system: HEK293F cells; experiment: Transient gene expression in HEK293F cells: IgG concentration / titer (turbidimetric test); format: cell-based, human; settings: none=100, N=1, FIG. 7
Description: as §1, §2, §3, §4, §5
as §7, with “g). The supernatant was transferred into a new cup and subjected to Cobas Integra 400 plus (Roche) analysis. With comparison to internal standard the absolute concentration was calculated.” for “g).”

[5] = test system: HEK293F cells; format: cell-based; settings: in words
Description: as §6

[6] = description from the literature
[7] = 50 ng/mL, none=100, N=2, FIG. 5

Compound: Cc1ccc(NC(=O)CCCCCC(=O)Nc2ccccc2N)cc1 [pimelic diphenylamide 106]
- HDAC selectivity ([1]; HDAC classes, summary table): Class I
- HDAC class / isoform selectivity [1, 6]: class I HDAC inhibitor with highest affinity towards HDAC 1 and 3, high affinity towards HDAC 2 and modest affinity towards HDAC 8
- activity at 20 µM ([2]; Homo sapiens, HEK293F, 20 μM, transfected control=100, N=3, FIG. 3B, read-out: relative cell specific productivity): 171%
- activity at 20 µM ([2]; Homo sapiens, HEK293F, employed concentration 20 μM, none=100, N=2, FIG. 2B, read-out: relative cell specific productivity): 160%
- Mean cell specific productivity ([2]; conc. 20 μM): 5.4 (20 μM) pg/cell/24 h
- HDACi ([3]; 20 μM, N=3, FIG. 3A): 22.6%
- HDAC inhibition [3]: yes

Compound: C=C(C)[C@@H]1CC[C@]2(C(=O)O)CC[C@]3(C)[C@H](CC[C@@H]4[C@@]5(C)CC[C@H](O)C(C)(C)[C@@H]5CC[C@]43C)[C@@H]12 [betulinic acid]
- activity at 10 µM ([2]; Homo sapiens, HEK293F, 10 μM, none=100, N=2, FIG. 5, read-out: relative cell specific productivity): 121%

Compound: COc1ccc(Cn2ccc3ccc(C(=O)NO)cc32)cc1 [PCI34051]
- HDAC class / isoform selectivity [1, 6]: HDAC 8-specific inhibitor
- relative IgG concentration ([4]; 5 μM): 99%

Compound: O=C(/C=C/c1cccc(S(=O)(=O)Nc2ccccc2)c1)NO [Belinostat]
- activity at 1 µM ([2]; Homo sapiens, HEK293F, employed concentration 1 μM, none=100, N=2, FIG. 2B, read-out: relative cell specific productivity): 115%

Compound: C/C=C1\NC(=O)[C@H]2CSSCC/C=C/[C@H](CC(=O)N[C@H](C(C)C)C(=O)N2)OC(=O)[C@H](C(C)C)NC1=O [Romidepsin]
- activity at 0.015 µM ([2]; Homo sapiens, HEK293F, none=100, N=3, FIG. 8A, read-out: relative cell specific productivity): 203%
- activity at 0.015 µM ([2]; Homo sapiens, HEK293F, none=100, N=3, FIG. 9A, read-out: relative cell specific productivity): 203%
- toxicity [5]: mild toxicity

Compound: CCCCCCCCCCCCCC(=O)O[C@@H]1[C@@H](C)[C@@]2(O)[C@@H](C=C(CO)C[C@]3(O)C(=O)C(C)=C[C@@H]23)[C@@H]2C(C)(C)[C@]12OC(C)=O [PMA, phorbol myristate acetate]
- activity at 0.1 µM ([2]; Homo sapiens, HEK293F, 100 nM, none=100, N=2, FIG. 5, read-out: relative cell specific productivity): 149%

Compound: Nc1ccccc1NC(=O)c1ccc(CNc2nccc(-c3cccnc3)n2)cc1 [Mocetinostat]
- HDAC class / isoform selectivity [1, 6]: lowest IC50 values for HDAC 1 and 2 and modest inhibitory activity against HDAC 3 and HDAC 11
- activity at 2 µM ([2]; Homo sapiens, HEK293F, employed concentration 2 μM, none=100, N=2, FIG. 2B, read-out: relative cell specific productivity): 135%

Compound: EGF: epidermal growth factor, NFκB activator
- specific productivity after 96 hours ([2]; 20 ng/mL, single treatment, N=3): 2.56 pg/cell/day
- relative cell specific productivity [2, 7]: 173%
- TGE enhancement after BAY11-7082 treatment compared to the corresponding single treatment [2]: significantly reduced

Compound: CCC(C)C(CC)C(=O)O (centres unmarked) [valnoctic acid]
- HDAC inhibitory activity [1, 6]: weak HDAC inhibitory activity

Compound: CC(/C=C/C(=O)NO)=C\[C@@H](C)C(=O)c1ccc(N(C)C)cc1 [Trichostatin A]
- HDACi [3]: 99%

Compound: TNFalpha
- relative cell specific productivity [2, 7]: 139%
- specific productivity after 96 hours ([2]; 50 ng/mL, single treatment, N=3): 2.66 pg/cell/day
- relative cell specific productivity ([2]; 50 ng/mL, single treatment, none=100, N=3): 157%
- TGE enhancement after BAY11-7082 treatment compared to the corresponding single treatment [2]: significantly reduced

Compound: CCCCOc1ccc(CC(=O)NO)cc1 [Bufexamac]
- HDAC class / isoform selectivity [1, 6]: selective class IIb HDAC inhibitor
- activity at 10 µM ([2]; Homo sapiens, HEK293F, employed concentration 10 μM, none=100, N=1, FIG. 2B, read-out: relative cell specific productivity): 94%

Compound: Nc1ccccc1NC(=O)c1ccc(CNC(=O)OCc2cccnc2)cc1 [Entinostat]
- HDAC class / isoform selectivity [1, 6]: class I HDAC inhibitor with additional inhibitory activity to class IIa member HDAC 9
- activity at 0.3 µM ([2]; Homo sapiens, HEK293F, employed concentration 300 nM, none=100, N=2, FIG. 2B, read-out: relative cell specific productivity): 108%

Compound: CCC(C)C(CC)C(N)=O (centres unmarked) [valnoctamide]
- TGE enhancement ([2]; 2 mM, in words): Weak TGE enhancement
- activity at 3000 µM ([2]; Homo sapiens, HEK293F, 3 mM, transfected control=100, N=3, FIG. 3B, read-out: relative cell specific productivity): 122%
- activity at 2000 µM ([2]; Homo sapiens, HEK293F, employed concentration 2 mM, none=100, N=2, FIG. 4, read-out: relative cell specific productivity): 133%
- activity at 3000 µM ([2]; Homo sapiens, HEK293F, employed concentration 3 mM, none=100, N=2, FIG. 4, read-out: relative cell specific productivity): 125%
- Mean cell specific productivity ([2]; conc. 3 mM): 1.71 (3 mM) pg/cell/24 h
- Effect on titer/SPR ([2]; summary table, in words): weak
- HDACi ([3]; 3 mM, N=3, FIG. 3A): 11.1%
- HDAC inhibition [3]: no

Compound: O=C(NCC1(c2nc(-c3ccccc3)cs2)CCOCC1)c1cccc(-c2noc(C(F)(F)F)n2)c1 [TMP269]
- HDAC class / isoform selectivity [1, 6]: preference to class IIa HDACs 4, 5, 7, and 9
- relative cell specific productivity ([2]; employed concentration 15 μM, none=100, N=2, FIG. 2B): 99%

Compound: CCC(=O)CCCCC[C@@H]1NC(=O)[C@H]2CCCCN2C(=O)[C@H]([C@@H](C)CC)NC(=O)[C@H](Cc2cn(OC)c3ccccc23)NC1=O [apicidin, Apicidin]
- relative IgG concentration ([4]; 200 nM): 182%

Compound: Nc1cc(F)ccc1NC(=O)/C=C/c1cnn(C/C=C/c2ccccc2)c1 [RGFP966]
- HDAC class / isoform selectivity [1, 6]: specific HDAC 3 inhibitor
- relative IgG concentration ([4]; 1 μM): 103%

Compound: Cc1ccc(S(=O)(=O)/C=C/C#N)cc1 [BAY 11-7082, BAY11-7082]
- specific productivity after 96 hours ([2]; 1 μM alone, N=3): 2.21 pg/cell/day
- specific productivity after 96 hours ([2]; 5 μM alone, N=3): 2.30 pg/cell/day
- specific productivity after 96 hours ([2]; 15 μM alone, N=3): 2.27 pg/cell/day
- duration of the effect ([2]; NFκB (IκB kinase) inhibition in transfected HEK293F cells): about 4 days
